Laboratory results as given in US10149470B2, “Methods and compositions for vein harvest and autografting” (Vanderbilt University, priority 2009, dated 2018).

What was measured:
Format in all cases: cell-based
porcine saphenous vein [1] = assay: KCl-induced contraction of porcine saphenous vein after stretch injury, with or without dye; conditions: 50 μM dye for 30 min on rings from stretched segments; FIG. 10
Procedure: Freshly isolated porcine saphenous vein was collected in cold transplant harvest buffer (100 mM potassium lactobionate, 25 mM KH2PO4, 5 mM MgSO4, 30 mM raffinose, 5 mM adenosine, 3 mM glutathione, 1 mM allopurinol, 50 g/L hydroxyethyl starch, pH 7.4). The vessels were tested within 24 hours of harvest and storage in transplant harvest buffer at 4° C. The vein was dissected free of fat and connective tissue and cut into 2 cm long segments. The segments were stretched to twice their resting length (stretched; n=7) or not manipulated (control; n=12). After stretching, the segments from both groups were further divided. A solution of erioglaucine (FCF, 2.6 mM, in 5% propylene glycol and water) or vehicle was then applied with a cotton swab in a longitudinal line to the untreated (FCF; n=8) or the stretched (Stretched+FCF; n=3) vein segments. The segments were incubated at room temperature for 15 min in Plasmalyte and then cut into rings. The rings were suspended in a muscle bath containing a bicarbonate buffer (120 mM NaCl, 4.7 mM KCl, 1.0 mM MgSO4, 1.0 mM NaH2PO4, 10 mM glucose, 1.5 mM CaCl2, and 25 mM […], pH 7.4), bubbled with 95% O2/5% CO2 at 37° C. The rings were manually stretched to 4 g of tension, and maintained at a resting tension of 1 g and equilibrated for ˜2 hr.
Rings from stretched segments were either incubated with 50 μM Allura Red (+Red) or 50 μM of erioglaucine (+FCF) for 30 min. The rings were then allowed to equilibrate in the bicarbonate buffer for before contracting with 110 mM KCl. Force generated was converted to stress (10^5 N/m^2). Data represent relative contractile response to Control rings which was set as 100%.

porcine saphenous vein [2] = assay: Intimal thickening of distended porcine saphenous vein rings in 14 day organ culture; conditions: 50 μM dye, 14 days culture, distended to >300 mm Hg, compared to Distended-Control; FIG. 14
Procedure: Fresh porcine saphenous vein was harvested by a no touch method under sterile conditions and stored in cold transplant harvest buffer (100 mM potassium lactobionate, 25 mM KH2PO4, 5 mM MgSO4, 30 mM Raffinose, 5 mM Adenosine, 3 mM Glutathione, 1 mM Allopurinol, 50 g/L Hydroxyethyl starch, pH 7.4). The vessels were used within 24 hr of harvest. The veins were divided into three segments that were left untreated (Unmanipulated, n=7), distended (Distended, n=8) to >300 mm Hg, or distended in the presence of the pressure relief valve (Pop Off, n=7). Each segment was then cut into ˜1 mm rings and one ring from each condition was immediately fixed in formalin (Pre-culture). The other rings were cultured in RPMI medium supplemented with 1% L-glutamine, penicillin/streptomycin and 30% Fetal bovine serum at 5% CO2 and 37° C. in the absence (Control) or presence of either 50 μM erioglaucine (FCF), 50 μM brilliant blue G (BBG) or 50 μM Allura Red (Red) for 14 days. After 14 days, the rings were fixed in formalin, sectioned at 5 μm and stained using Verhoff Van Gieson stain. Light micrograph of the rings was captured using a Axiovert 200 and intimal thickness was measured using AxioVision.

human saphenous vein [3] = conditions: 15 min, pH 7.4
Procedure: De-identified discarded segments of human saphenous vein were collected (n=66), after informed consent approved by the Institutional Review Board of the Vanderbilt University (Nashville, Tenn.), from patients undergoing coronary artery bypass or peripheral vascular bypass surgery. The veins were stored in a saline solution until the end of the surgical procedure at which time they were placed in cold transplant harvest buffer (100 mM potassium lactobionate, 25 mM KH2PO4, 5 mM MgSO4, 30 mM raffinose, 5 mM adenosine, 3 mM glutathione, 1 mM allopurinol, 50 g/L hydroxyethyl starch, pH 7.4) and stored at 4° C. The vessels were tested within 24 hours of harvest. The presense of blue markings were assessed for each HSV. Rings 1.0 mm in width were cut from segments of saphenous vein dissected free of fat and connective tissue, stripped of the endothelium and were suspended in a muscle bath containing a bicarbonate buffer (120 mM NaCl, 4.7 mM KCl, 1.0 mM MgSO4, 1.0 mM NaH2PO4, 10 mM glucose, 1.5 mM CaCl2, and 25 mM […], pH 7.4), gassed with 95% O2/5% CO2 at 37° C. The rings were manually stretched to 4 g of tension, and was maintained at a resting tension of 1 g was obtained and equilibrated for ˜2 hr. […] To determine viability, the rings were contracted with 110 mM KCl (with equimolar replacement of NaCl in bicarbonate buffer), and the force generated was measured. […]

porcine saphenous veins = conditions: pig, 15 min, 50 %
Procedure: Freshly isolated porcine saphenous veins were used to test the effect of different marking methods. The veins were collected and placed in cold transplant harvest buffer [100 mM potassium lactobionate, 25 mM KH2PO4, 5 mM MgSO4, 30 mM raffinose, 5 mM adenosine, 3 mM glutathione, 1 mM allopurinol, 50 g/L hydroxyethyl starch, pH 7.4]. The vessels were stored in transplant harvest buffer at 4° C. and tested within 24 hours of harvest and. To test the viability, rings 1.0 mm in width were cut from segments of saphenous vein and dissected free of fat and connective tissue. Saphenous vein rings were untreated (Control; n=6), marked with the surgical skin marker (n=3), or 50% isopropyl alcohol (the solvent used in the surgical marker; n=3) and incubated for 15 min at room temperature. The rings were then equilibrated in a muscle bath, contracted with KCl, and force was measured and converted to stress (10^5 N/m^2). […] (FIG. 7).

porcine coronary artery = assay: Papaverine effect on tension and on histamine/KCl contraction of porcine coronary artery rings
Procedure: Porcine coronary arteries were freshly isolated from euthanized pigs and placed directly into cold transplant harvest buffer (100 mM potassium lactobionate, 25 mM KH2PO4, 5 mM MgSO4, 30 mM Raffinose, 5 mM Adenosine, 3 mM Glutathione, 1 mM Allopurinol, 50 g/L Hydroxyethyl starch, pH 7.4). Coronary arteries were dissected free of fat and adventitial tissues and the endothelium was removed. Transverse rings (1.0 mm thickness) were cut and suspended in muscle bath, via silk 3-0 linked to force transducers (Kent Scientific, CT) interfaced with a Data Translation A-D board (Data Translation, MA). Data was acquired with the Power Lab software program. Porcine coronary artery rings were suspended in a muscle bath and equilibrated in Krebs Ringer bicarbonate buffer for 2 h. The rings were stretched and the length progressively adjusted until maximal tension was obtained. The rings were contracted with 110 mM KCl (with equimolar replacement of NaCl in bicarbonate buffer), and the force generated was measured and converted to stress [Newtons (N)/m^2]=force (g)×0.0987/area, where area is equal to the wet weight [mg/length (mm at maximal length)] divided by 1.055. Rings were washed and equilibrated for another 30 mins. Rings were treated with 5 μM histamine, 110 mM KCl, 1 mM papaverine (PAP), 1 mM papaverine for 10 min followed by 5 μM histamine or 1 mM papaverine for 10 min followed by 110 mM KCl and force generated was measured- and converted to stress. Representative force tracings of rings treated with 5 μM histamine (Hist), 110 mM KCl (KCl), 1 mM papaverine (PAP), 1 mM papaverine for 10 min followed by 5 μM histamine (Pap+Hist) or 1 mM papaverine for 10 min followed by 110 mM KCl (Pap+KCl) were depicted in FIG. 18A. Decrease in stress was converted to a percentage of the maximal initial KCl contraction which was set as 100%.

human saphenous vein [4] = assay: Papaverine effect on tension and on norepinephrine contraction of human saphenous vein rings
Procedure: De-identified discarded segments of human saphenous vein (n=6) were collected, after informed consent approved by the Institutional Review Board of the Vanderbilt University (Nashville, Tenn.), from patients undergoing coronary artery bypass or peripheral vascular bypass surgery. The veins were stored in a saline solution until the end of the surgical procedure at which time they were placed in cold transplant harvest buffer (100 mM potassium lactobionate, 25 mM KH2PO4, 5 mM MgSO4, 30 mM raffinose, 5 mM adenosine, 3 mM glutathione, 1 mM allopurinol, 50 g/L hydroxyethyl starch, pH 7.4). The vessels were tested within 24 hrs of harvest and storage in transplant harvest buffer at 4° C. Veins were cleaned off fat and adventitial tissues and the endothelium was removed. […] The rings were contracted with 110 mM KCl (with equimolar replacement of NaCl in bicarbonate buffer), and the force generated was measured and converted to stress [Newtons (N)/m^2]==force (g)×0.0987/area, where area is equal to the wet weight [mg/length (mm at maximal length)] divided by 1.055. […] Rings were treated with 0.5 μM norepinephrine (NE), 1 mM papaverine (Pap), or 1 mM papaverine for 10 min followed by 0.5 μM NE and force generated was measured and converted to stress. […]

## COc1cc(S(=O)(=O)[O-])c(C)cc1N=Nc1c(O)ccc2cc(S(=O)(=O)[O-])ccc12.[Na+].[Na+] [Allura Red]
Porcine saphenous vein [1]
  restoration of functional viability (contractile response to KCl) after stretch injury: did not restore functional viability
Porcine saphenous vein [2]
  distension induced increases in intimal thickening: but not allura red inhibited distension induced increases in intimal thickening

## CN(C)c1ccc2nc3ccc(=[N+](C)C)cc-3sc2c1 [methylene blue]
Human saphenous vein [3]
  average stress, contraction with 110 mM KCl: 0.014±0.01 10^5 N/m^2

## CC(C)O [50% isopropyl alcohol, isopropyl alcohol]
Porcine saphenous veins
  average stress, contraction with KCl: 5 ± 5 N/m^2
Human saphenous vein [3]
  average stress, contraction with 110 mM KCl: 0.005±0.003 10^5 N/m^2

## COc1ccc(Cc2nccc3cc(OC)c(OC)cc23)cc1OC [papaverine]
Porcine coronary artery; 1 mM papaverine
  change of basal tension, percentage of the maximal initial KCl contraction: −15.0±3.135%
Porcine coronary artery; 1 mM papaverine 10 min then 5 μM histamine, histamine alone 98.613±11.049
  histamine induced contraction after papaverine, percentage of the maximal initial KCl contraction: −12.0±4.163%
Porcine coronary artery; 1 mM papaverine 10 min then 110 mM KCl, KCl alone 103.33±2.404
  KCl induced contraction after papaverine, percentage of the maximal initial KCl contraction: −20.0±10.00%
Porcine coronary artery; preincubation with papaverine, FIGS. 18A-B
  histamine and KCl induced contractions (in words): inhibits histamine and KCl induced contractions
Human saphenous vein [4]; 1 mM papaverine 10 min then 0.5 μM NE, NE alone 89.935±18.344
  norepinephrine induced contraction after papaverine, percentage of the maximal initial KCl contraction: −3.210±5.119%
Human saphenous vein [4]; preincubation with papaverine, FIGS. 19A-B
  norepinephrine induced contractions (in words): inhibits norepinephrine induced contractions
